Experimental data: PubChem BioAssay (NCI)
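Growth conditions: 96-well plates. Treatment: test compound, 48 hours, 5 concentrations. Analysis: linear interpolation between bracketing concentrations; unreached endpoints set to highest concentration. GI50 = concentration required for 50% inhibition of growth. TGI: total growth inhibition.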

Assays:
Assay in all cases: DTP human tumour cell line panel, 48 h
[1] = test system: NCI-H226 lung
[2] = test system: IGROV1 ovarian
[3] = test system: TK-10 renal
[4] = test system: PC-3 prostate
[5] = test system: NCI/ADR-RES ovarian
[6] = test system: UACC-257 melanoma
[7] = test system: CAKI-1 renal
[8] = test system: U251 CNS
[9] = test system: MDA-N
[10] = test system: SK-OV-3 ovarian

SMILES | GI50 [1] | TGI [2] | GI50 [3] | TGI [3] | GI50 [4] | TGI [4] | GI50 [5] | GI50 [6] | TGI [6] | TGI [7] | TGI [1] | TGI [5] | TGI [8] | TGI [9] | TGI [10]
CCCCCCCCCC[C@@H](O)[C@H]1CC[C@@H]([C@H]2CC[C@H]([C@H](O)CCCCCCCCCC[C@@H]3CC(CC(C)=O)C(=O)O3)O2)O1 (stereo not given in full) | 19.6 µM | > 100 µM | 26.9 µM | > 100 µM | 25.4 µM | 99.4 µM | 11.9 µM | 3.23 µM | 66.3 µM | > 100 µM |  |  |  |  | 
OCC1=C[C@@](COCc2ccccc2)(OCc2ccccc2)[C@@H](OCc2ccccc2)[C@@H]1OCc1ccccc1 |  | 38.5 µM |  | > 100 µM |  | 55.5 µM |  |  | 67.6 µM | 45.1 µM | 35.3 µM | 16.9 µM | 25.6 µM | 53.6 µM | 
OCC(CO)CC1COc2ccccc2O1 (stereo not given) |  | > 10 µM |  | > 10 µM |  | > 10 µM |  |  |  | > 10 µM | > 10 µM | > 10 µM | > 10 µM | > 10 µM | > 10 µM
CCCCN=C(OC1C=CCCC1)SC (stereo not given) |  | > 100 µM |  | > 100 µM |  | > 100 µM |  |  | > 100 µM |  | > 100 µM | > 100 µM | > 100 µM | > 100 µM | > 100 µM
CC(=O)N/N=C1\NN(C(C)=O)C2(S1)C(=O)Nc1ccccc12 (stereo not given) |  | > 100 µM |  | > 100 µM |  | > 100 µM |  |  |  | > 100 µM | > 100 µM | > 100 µM | > 100 µM | > 100 µM | > 100 µM
CC12CC(=O)NN=C1c1ccccc1C2 (stereo not given) |  | > 100 µM |  | > 100 µM |  |  |  |  | > 100 µM | > 100 µM | > 100 µM |  | > 100 µM |  | > 100 µM
c1csc(-c2csc(-c3cccs3)c2)c1 |  | > 100 µM |  | > 100 µM |  | 82.7 µM |  |  | > 100 µM | > 100 µM |  | > 100 µM | > 100 µM |  | > 100 µM
COC(=O)C[C@H]1[C@]2(C)C3=C(C)[C@H](c4ccoc4)CC3O[C@@H]2[C@@H]2OC(=O)[C@]3(C)CCC(=O)[C@@]1(C)[C@@H]23 (stereo not given in full) |  | > 100 µM |  |  |  |  |  |  | > 100 µM | > 100 µM |  | > 100 µM | > 100 µM | > 100 µM | > 100 µM
C=CC(=O)N1C/C(=C\c2ccc(F)cc2)C(=O)/C(=C/c2ccc(F)cc2)C1 |  | 1.38 µM |  | 2.84 µM |  | 1.79 µM |  |  | 6.05 µM | 1.7 µM | 8.78 µM | 20.1 µM | 2.28 µM |  | 2.38 µM
Oc1cc(Br)cc2cc(Br)cnc12 |  | 12.6 µM |  | > 100 µM |  | > 100 µM |  |  | > 100 µM | 42.6 µM | 86.5 µM | > 100 µM |  | > 100 µM | > 100 µM
CCn1c2ccccc2c2cc(NC(=O)c3c(C)[nH]c(=O)[nH]c3=S)ccc21 |  |  |  | > 100 µM |  | > 100 µM |  |  | > 100 µM | > 100 µM | > 100 µM | > 100 µM | > 100 µM | > 100 µM | > 100 µM
